Reference: the NIST ThermoML archive (doi:10.1016/j.jct.2017.03.006)
Numbers after ± are expanded uncertainties.

Test: xn = mol fraction of the nth substance listed
Conditions: Liquid; for viscosity: Concentric cylinders viscometry; for mass density: Vibrating tube method

Cc1ccc(C)c(C)c1 [1,2,4-trimethylbenzene] + CCC(C)O
Conditions	mass density [kg/m3]	viscosity [mPa·s]
323.15 K, 100 kPa, x2 = 0.7001	–	0.78 ± 0.017
323.15 K, 100 kPa, x2 = 0.7997	–	0.88 ± 0.019
323.15 K, 100 kPa, x2 = 0.9001	–	1.04 ± 0.022
333.15 K, 100 kPa, x2 = 0	843.6 ± 0.7	0.562 ± 0.012
333.15 K, 100 kPa, x2 = 0.1	835.7 ± 0.7	–
333.15 K, 100 kPa, x2 = 0.1001	–	0.558 ± 0.012
333.15 K, 100 kPa, x2 = 0.1989	829.2 ± 0.7	–
333.15 K, 100 kPa, x2 = 0.2261	–	0.554 ± 0.012
333.15 K, 100 kPa, x2 = 0.3	–	0.548 ± 0.012
333.15 K, 100 kPa, x2 = 0.3011	822.5 ± 0.7	–
333.15 K, 100 kPa, x2 = 0.3966	–	0.568 ± 0.013
333.15 K, 100 kPa, x2 = 0.4002	816 ± 0.7	–
333.15 K, 100 kPa, x2 = 0.5001	809.8 ± 0.7	–
333.15 K, 100 kPa, x2 = 0.5298	–	0.567 ± 0.012
333.15 K, 100 kPa, x2 = 0.5997	802.2 ± 0.7	–
333.15 K, 100 kPa, x2 = 0.6001	–	0.6 ± 0.013
333.15 K, 100 kPa, x2 = 0.6999	794.7 ± 0.7	–
333.15 K, 100 kPa, x2 = 0.7001	–	0.65 ± 0.014
333.15 K, 100 kPa, x2 = 0.7997	–	0.72 ± 0.016
333.15 K, 100 kPa, x2 = 0.7999	787.1 ± 0.7	–
333.15 K, 100 kPa, x2 = 0.9	779.1 ± 0.7	–
333.15 K, 100 kPa, x2 = 0.9001	–	0.82 ± 0.018
333.15 K, 1000 kPa, x2 = 0	844.4 ± 0.7	–
333.15 K, 1000 kPa, x2 = 0.1	836.5 ± 0.7	–
333.15 K, 1000 kPa, x2 = 0.1989	830 ± 0.7	–
333.15 K, 1000 kPa, x2 = 0.3011	823.3 ± 0.7	–
333.15 K, 1000 kPa, x2 = 0.4002	816.8 ± 0.7	–
333.15 K, 1000 kPa, x2 = 0.5001	810.7 ± 0.7	–
333.15 K, 1000 kPa, x2 = 0.5997	803.1 ± 0.7	–
333.15 K, 1000 kPa, x2 = 0.6999	795.6 ± 0.7	–
333.15 K, 1000 kPa, x2 = 0.7999	788 ± 0.7	–
333.15 K, 1000 kPa, x2 = 0.9	780 ± 0.7	–
333.15 K, 2000 kPa, x2 = 0	845.2 ± 0.7	–
333.15 K, 2000 kPa, x2 = 0.1	837.4 ± 0.7	–
333.15 K, 2000 kPa, x2 = 0.1989	830.9 ± 0.7	–
333.15 K, 2000 kPa, x2 = 0.3011	824.2 ± 0.7	–
333.15 K, 2000 kPa, x2 = 0.4002	817.8 ± 0.7	–
333.15 K, 2000 kPa, x2 = 0.5001	811.7 ± 0.7	–
333.15 K, 2000 kPa, x2 = 0.5997	804 ± 0.7	–
333.15 K, 2000 kPa, x2 = 0.6999	796.6 ± 0.7	–
333.15 K, 2000 kPa, x2 = 0.7999	789 ± 0.7	–
333.15 K, 2000 kPa, x2 = 0.9	781 ± 0.7	–
333.15 K, 5000 kPa, x2 = 0	847.6 ± 0.7	–
333.15 K, 5000 kPa, x2 = 0.1	840 ± 0.7	–
333.15 K, 5000 kPa, x2 = 0.1989	833.5 ± 0.7	–
333.15 K, 5000 kPa, x2 = 0.3011	826.9 ± 0.7	–
333.15 K, 5000 kPa, x2 = 0.4002	820.4 ± 0.7	–
333.15 K, 5000 kPa, x2 = 0.5001	814.4 ± 0.7	–
333.15 K, 5000 kPa, x2 = 0.5997	806.9 ± 0.7	–
333.15 K, 5000 kPa, x2 = 0.6999	799.5 ± 0.7	–
333.15 K, 5000 kPa, x2 = 0.7999	791.9 ± 0.7	–
333.15 K, 5000 kPa, x2 = 0.9	784 ± 0.7	–
333.15 K, 10000 kPa, x2 = 0	851.4 ± 0.7	–
333.15 K, 10000 kPa, x2 = 0.1	843.9 ± 0.7	–
333.15 K, 10000 kPa, x2 = 0.1989	837.6 ± 0.7	–
333.15 K, 10000 kPa, x2 = 0.3011	831.1 ± 0.7	–
333.15 K, 10000 kPa, x2 = 0.4002	824.7 ± 0.7	–
333.15 K, 10000 kPa, x2 = 0.5001	818.7 ± 0.7	–
333.15 K, 10000 kPa, x2 = 0.5997	811.3 ± 0.7	–
333.15 K, 10000 kPa, x2 = 0.6999	803.9 ± 0.7	–
333.15 K, 10000 kPa, x2 = 0.7999	796.5 ± 0.7	–
333.15 K, 10000 kPa, x2 = 0.9	788.6 ± 0.7	–
333.15 K, 15000 kPa, x2 = 0	855.1 ± 0.7	–
333.15 K, 15000 kPa, x2 = 0.1	847.9 ± 0.7	–
333.15 K, 15000 kPa, x2 = 0.1989	841.6 ± 0.7	–
333.15 K, 15000 kPa, x2 = 0.3011	835.1 ± 0.7	–
333.15 K, 15000 kPa, x2 = 0.4002	828.8 ± 0.7	–
333.15 K, 15000 kPa, x2 = 0.5001	822.9 ± 0.7	–
333.15 K, 15000 kPa, x2 = 0.5997	815.5 ± 0.7	–
333.15 K, 15000 kPa, x2 = 0.6999	808.2 ± 0.7	–
333.15 K, 15000 kPa, x2 = 0.7999	800.8 ± 0.7	–
333.15 K, 15000 kPa, x2 = 0.9	793 ± 0.7	–
333.15 K, 20000 kPa, x2 = 0	858.6 ± 0.7	–
333.15 K, 20000 kPa, x2 = 0.1	851.6 ± 0.7	–
333.15 K, 20000 kPa, x2 = 0.1989	845.4 ± 0.7	–
333.15 K, 20000 kPa, x2 = 0.3011	839 ± 0.7	–
333.15 K, 20000 kPa, x2 = 0.4002	832.7 ± 0.7	–
333.15 K, 20000 kPa, x2 = 0.5001	826.9 ± 0.7	–
333.15 K, 20000 kPa, x2 = 0.5997	819.5 ± 0.7	–
333.15 K, 20000 kPa, x2 = 0.6999	812.3 ± 0.7	–
333.15 K, 20000 kPa, x2 = 0.7999	805 ± 0.7	–
333.15 K, 20000 kPa, x2 = 0.9	797.2 ± 0.7	–
333.15 K, 30000 kPa, x2 = 0	865.3 ± 0.7	–
333.15 K, 30000 kPa, x2 = 0.1	858.6 ± 0.7	–
333.15 K, 30000 kPa, x2 = 0.1989	852.5 ± 0.7	–
333.15 K, 30000 kPa, x2 = 0.3011	846.2 ± 0.7	–
333.15 K, 30000 kPa, x2 = 0.4002	840.1 ± 0.8	–
333.15 K, 30000 kPa, x2 = 0.5001	834.4 ± 0.8	–
333.15 K, 30000 kPa, x2 = 0.5997	827.1 ± 0.8	–
333.15 K, 30000 kPa, x2 = 0.6999	819.9 ± 0.8	–
333.15 K, 30000 kPa, x2 = 0.7999	812.7 ± 0.8	–
333.15 K, 30000 kPa, x2 = 0.9	805 ± 0.8	–
333.15 K, 40000 kPa, x2 = 0	871.6 ± 0.8	–
333.15 K, 40000 kPa, x2 = 0.1	865.1 ± 0.8	–
333.15 K, 40000 kPa, x2 = 0.1989	859.1 ± 0.8	–
333.15 K, 40000 kPa, x2 = 0.3011	852.9 ± 0.8	–
333.15 K, 40000 kPa, x2 = 0.4002	846.8 ± 0.8	–
333.15 K, 40000 kPa, x2 = 0.5001	841.2 ± 0.8	–
333.15 K, 40000 kPa, x2 = 0.5997	834.1 ± 0.8	–
333.15 K, 40000 kPa, x2 = 0.6999	826.9 ± 0.8	–
